Source: the kinase profiling compilation of Christmann-Franck et al. (2016)
One block for each compound: values may come before it.

Assays:
Test in all cases: radiometric filter-binding kinase assay
EEF2K (human) = EEF2K (human) (UniProt O00418)
PRKAA1 or PRKAA2 (rat) = details: accession and sequence are those of the human protein
STK3 (human) = STK3 (human) (UniProt Q13188)
SYK (human) = SYK (human) (UniProt P43405)
PIM2 (human) = PIM2 (human) (UniProt Q9P1W9)
MAPK9 (human) = MAPK9 (human) (UniProt P45984)
Chain of MAPK9 (human) (P45984 whole entry, looked up): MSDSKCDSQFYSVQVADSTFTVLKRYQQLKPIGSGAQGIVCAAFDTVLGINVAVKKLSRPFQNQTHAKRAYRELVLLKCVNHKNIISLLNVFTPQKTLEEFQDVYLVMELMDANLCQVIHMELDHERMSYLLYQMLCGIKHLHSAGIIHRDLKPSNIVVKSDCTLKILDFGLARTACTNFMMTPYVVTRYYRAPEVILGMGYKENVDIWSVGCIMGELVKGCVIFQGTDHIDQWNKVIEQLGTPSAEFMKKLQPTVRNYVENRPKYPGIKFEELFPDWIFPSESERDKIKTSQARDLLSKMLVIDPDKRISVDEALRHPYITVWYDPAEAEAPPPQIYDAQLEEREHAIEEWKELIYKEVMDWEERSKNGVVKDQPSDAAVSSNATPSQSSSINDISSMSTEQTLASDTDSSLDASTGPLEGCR

MKNK1 (human) = MKNK1 (human) (UniProt Q9BUB5)
MAPKAPK5 (human) = MAPKAPK5 (human) (UniProt Q8IW41)
Chain of MAPKAPK5 (human) (Q8IW41 whole entry, looked up): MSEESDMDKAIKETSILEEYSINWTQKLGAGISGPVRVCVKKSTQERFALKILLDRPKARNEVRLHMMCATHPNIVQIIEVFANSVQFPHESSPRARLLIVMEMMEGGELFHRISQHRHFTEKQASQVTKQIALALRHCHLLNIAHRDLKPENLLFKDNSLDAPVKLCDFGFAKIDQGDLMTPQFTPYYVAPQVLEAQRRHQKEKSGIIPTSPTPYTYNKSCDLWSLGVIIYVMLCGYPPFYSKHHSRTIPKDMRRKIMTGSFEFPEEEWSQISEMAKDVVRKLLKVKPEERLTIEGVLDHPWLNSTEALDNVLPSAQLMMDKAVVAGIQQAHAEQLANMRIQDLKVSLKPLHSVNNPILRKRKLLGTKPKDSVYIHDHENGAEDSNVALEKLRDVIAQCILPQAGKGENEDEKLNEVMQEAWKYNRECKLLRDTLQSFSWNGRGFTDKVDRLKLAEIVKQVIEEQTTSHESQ

PIM1 (human) = PIM1 (human) (UniProt P11309)
PRKCZ (human) = PRKCZ (human) (UniProt Q05513)
PIM3 (human) = PIM3 (human) (UniProt Q86V86)
MELK (human) = MELK (human) (UniProt Q14680)
DYRK1A (human) = DYRK1A (human) (UniProt Q13627)
FGFR1 (human) = FGFR1 (human) (UniProt P11362)
[1] = test system: SGK1 (human), O00141 [S422D]
CAMKK2 (human) = CAMKK2 (human) (UniProt Q96RR4)
Chain of CAMKK2 (human) (Q96RR4 whole entry, looked up): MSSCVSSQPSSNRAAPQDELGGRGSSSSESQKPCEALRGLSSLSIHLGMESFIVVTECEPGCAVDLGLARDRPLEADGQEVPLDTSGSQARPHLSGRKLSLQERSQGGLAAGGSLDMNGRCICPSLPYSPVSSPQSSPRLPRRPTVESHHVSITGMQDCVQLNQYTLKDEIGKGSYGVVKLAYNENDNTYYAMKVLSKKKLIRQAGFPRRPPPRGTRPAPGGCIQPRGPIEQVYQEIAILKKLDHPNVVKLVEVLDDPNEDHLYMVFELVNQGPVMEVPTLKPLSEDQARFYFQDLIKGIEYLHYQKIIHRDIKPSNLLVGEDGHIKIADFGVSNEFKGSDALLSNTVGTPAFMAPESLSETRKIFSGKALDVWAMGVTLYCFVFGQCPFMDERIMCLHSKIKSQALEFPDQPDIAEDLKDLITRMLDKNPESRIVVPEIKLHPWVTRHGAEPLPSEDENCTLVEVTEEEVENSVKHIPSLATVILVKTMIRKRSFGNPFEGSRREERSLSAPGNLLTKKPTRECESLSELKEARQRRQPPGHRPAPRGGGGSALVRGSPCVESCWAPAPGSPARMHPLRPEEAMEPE

MAPK3 (human) = MAPK3 (human) (UniProt P27361)
MAPK13 (human) = MAPK13 (human) (UniProt O15264)
Chain of MAPK13 (human) (O15264 whole entry, looked up): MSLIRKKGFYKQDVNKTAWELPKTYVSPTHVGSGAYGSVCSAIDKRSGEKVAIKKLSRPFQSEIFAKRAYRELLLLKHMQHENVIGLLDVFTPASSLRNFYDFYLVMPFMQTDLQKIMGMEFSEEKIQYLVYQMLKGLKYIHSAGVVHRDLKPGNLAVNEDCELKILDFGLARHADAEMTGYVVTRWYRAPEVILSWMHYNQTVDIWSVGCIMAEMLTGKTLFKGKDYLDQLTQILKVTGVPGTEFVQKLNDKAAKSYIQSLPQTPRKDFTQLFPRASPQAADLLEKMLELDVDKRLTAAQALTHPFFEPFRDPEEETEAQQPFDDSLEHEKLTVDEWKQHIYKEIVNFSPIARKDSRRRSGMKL

BRSK1 (human) = BRSK1 (human) (UniProt Q8TDC3)
Chain of BRSK1 (human) (Q8TDC3 whole entry, looked up): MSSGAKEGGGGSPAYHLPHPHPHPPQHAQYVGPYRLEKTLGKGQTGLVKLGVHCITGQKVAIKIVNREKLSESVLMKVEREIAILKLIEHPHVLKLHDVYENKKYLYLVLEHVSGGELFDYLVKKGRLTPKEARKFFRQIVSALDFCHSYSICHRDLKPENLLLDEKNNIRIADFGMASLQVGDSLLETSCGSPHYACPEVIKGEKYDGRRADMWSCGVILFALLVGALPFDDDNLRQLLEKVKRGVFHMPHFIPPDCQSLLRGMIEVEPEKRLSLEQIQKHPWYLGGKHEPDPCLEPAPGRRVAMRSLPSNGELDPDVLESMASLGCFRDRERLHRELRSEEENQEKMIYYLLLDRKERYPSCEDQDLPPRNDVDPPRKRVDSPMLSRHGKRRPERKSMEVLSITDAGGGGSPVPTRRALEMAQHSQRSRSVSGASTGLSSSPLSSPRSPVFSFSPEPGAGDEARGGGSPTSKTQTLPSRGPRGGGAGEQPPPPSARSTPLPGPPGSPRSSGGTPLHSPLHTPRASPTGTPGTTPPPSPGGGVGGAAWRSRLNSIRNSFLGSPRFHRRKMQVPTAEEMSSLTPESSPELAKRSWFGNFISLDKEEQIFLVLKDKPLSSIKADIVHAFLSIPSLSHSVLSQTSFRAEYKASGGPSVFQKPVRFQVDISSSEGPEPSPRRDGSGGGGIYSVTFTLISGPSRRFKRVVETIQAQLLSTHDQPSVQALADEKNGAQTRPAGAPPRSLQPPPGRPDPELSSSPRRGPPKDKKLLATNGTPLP

MAPKAPK2 (human) = MAPKAPK2 (human) (UniProt P49137)
BRSK2 (human) = BRSK2 (human) (UniProt Q8IWQ3)
GSK3B (human) = GSK3B (human) (UniProt P49841)
PAK7 (human) = PAK7 (human) (UniProt Q9P286)
Chain of PAK7 (human) (Q9P286 whole entry, looked up): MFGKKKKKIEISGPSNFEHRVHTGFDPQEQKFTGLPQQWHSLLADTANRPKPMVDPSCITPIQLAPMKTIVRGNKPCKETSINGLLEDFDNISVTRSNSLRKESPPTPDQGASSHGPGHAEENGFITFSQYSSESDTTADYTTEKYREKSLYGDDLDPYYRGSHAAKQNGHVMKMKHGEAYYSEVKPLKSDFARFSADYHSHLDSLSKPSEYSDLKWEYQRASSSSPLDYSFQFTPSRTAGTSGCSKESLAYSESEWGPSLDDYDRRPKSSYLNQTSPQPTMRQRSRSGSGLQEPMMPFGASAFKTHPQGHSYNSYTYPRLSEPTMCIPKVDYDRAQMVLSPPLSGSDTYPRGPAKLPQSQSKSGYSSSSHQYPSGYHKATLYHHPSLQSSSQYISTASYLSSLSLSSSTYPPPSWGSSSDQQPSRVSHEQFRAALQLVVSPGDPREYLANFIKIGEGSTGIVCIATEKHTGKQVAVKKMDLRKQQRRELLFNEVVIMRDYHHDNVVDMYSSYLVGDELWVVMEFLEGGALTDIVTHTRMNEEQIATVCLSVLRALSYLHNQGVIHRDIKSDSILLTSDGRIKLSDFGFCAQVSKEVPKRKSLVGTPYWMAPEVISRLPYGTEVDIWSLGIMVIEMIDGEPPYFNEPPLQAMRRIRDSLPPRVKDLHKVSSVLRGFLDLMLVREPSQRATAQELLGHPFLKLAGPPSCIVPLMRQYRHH

PHKG1 (human) = PHKG1 (human) (UniProt Q16816)
ERBB4 (human) = ERBB4 (human) (UniProt Q15303)
IKBKE (human) = IKBKE (human) (UniProt Q14164)
MAPK12 (human) = MAPK12 (human) (UniProt P53778)
Chain of MAPK12 (human) (P53778 whole entry, looked up): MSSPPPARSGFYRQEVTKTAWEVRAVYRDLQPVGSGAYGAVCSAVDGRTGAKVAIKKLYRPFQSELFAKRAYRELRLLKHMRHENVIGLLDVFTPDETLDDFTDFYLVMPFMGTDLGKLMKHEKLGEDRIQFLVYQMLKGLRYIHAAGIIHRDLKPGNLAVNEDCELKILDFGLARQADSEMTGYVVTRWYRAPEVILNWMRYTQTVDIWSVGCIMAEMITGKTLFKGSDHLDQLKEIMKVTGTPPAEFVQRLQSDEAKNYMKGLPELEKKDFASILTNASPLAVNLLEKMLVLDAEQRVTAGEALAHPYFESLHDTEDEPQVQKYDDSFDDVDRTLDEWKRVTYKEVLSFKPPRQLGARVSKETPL

PRKACA (human) = PRKACA (human) (UniProt P17612)
IGF1R (human) = IGF1R (human) (UniProt P08069)
HIPK3 (human) = HIPK3 (human) (UniProt Q9H422)
Chain of HIPK3 (human) (Q9H422 whole entry, looked up): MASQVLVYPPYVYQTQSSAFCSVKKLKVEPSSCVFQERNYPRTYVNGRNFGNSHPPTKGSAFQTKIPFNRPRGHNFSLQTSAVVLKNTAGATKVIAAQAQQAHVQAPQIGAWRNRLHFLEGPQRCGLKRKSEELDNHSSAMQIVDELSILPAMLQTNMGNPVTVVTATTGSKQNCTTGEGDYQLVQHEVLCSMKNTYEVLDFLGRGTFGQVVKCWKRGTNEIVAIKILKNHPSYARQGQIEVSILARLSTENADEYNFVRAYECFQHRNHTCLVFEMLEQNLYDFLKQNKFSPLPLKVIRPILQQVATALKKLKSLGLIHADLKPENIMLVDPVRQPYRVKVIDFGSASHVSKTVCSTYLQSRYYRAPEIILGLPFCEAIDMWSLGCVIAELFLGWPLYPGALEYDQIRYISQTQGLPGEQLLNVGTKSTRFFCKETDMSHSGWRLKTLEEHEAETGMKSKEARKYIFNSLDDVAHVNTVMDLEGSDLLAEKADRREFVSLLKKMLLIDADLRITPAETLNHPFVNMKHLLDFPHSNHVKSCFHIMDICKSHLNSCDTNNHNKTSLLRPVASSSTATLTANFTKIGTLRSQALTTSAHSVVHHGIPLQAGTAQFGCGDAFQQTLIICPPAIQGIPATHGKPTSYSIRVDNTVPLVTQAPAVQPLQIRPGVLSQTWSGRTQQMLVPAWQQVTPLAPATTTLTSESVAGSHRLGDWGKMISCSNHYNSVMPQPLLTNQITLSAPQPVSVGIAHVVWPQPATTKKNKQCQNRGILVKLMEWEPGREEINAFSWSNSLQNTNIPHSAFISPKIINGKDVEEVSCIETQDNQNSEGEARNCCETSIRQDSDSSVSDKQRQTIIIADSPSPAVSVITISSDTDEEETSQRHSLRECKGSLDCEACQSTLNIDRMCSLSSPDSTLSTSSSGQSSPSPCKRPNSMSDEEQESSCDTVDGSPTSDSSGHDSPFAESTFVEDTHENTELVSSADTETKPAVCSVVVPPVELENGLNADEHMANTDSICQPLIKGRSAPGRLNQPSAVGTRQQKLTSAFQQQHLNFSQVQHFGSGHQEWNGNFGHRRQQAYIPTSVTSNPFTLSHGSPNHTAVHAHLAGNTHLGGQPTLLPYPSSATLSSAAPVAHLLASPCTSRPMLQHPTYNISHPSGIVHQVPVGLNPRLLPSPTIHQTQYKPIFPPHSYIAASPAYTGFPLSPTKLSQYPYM

MARK1 (human) = MARK1 (human) (UniProt Q9P0L2)
DAPK1 (human) = DAPK1 (human) (UniProt P53355)
EPHB4 (human) = EPHB4 (human) (UniProt P54760)

residual activity (EEF2K (human); compound 1.0 µM): 95%
residual activity (EEF2K (human); compound 10.0 µM): 109%
residual activity (PRKAA1 or PRKAA2 (rat); compound 1.0 µM): 101%
residual activity (STK3 (human); compound 1.0 µM): 94%
residual activity (STK3 (human); compound 10.0 µM): 92%
residual activity (SYK (human); compound 1.0 µM): 101%
residual activity (SYK (human); compound 10.0 µM): 107%
residual activity (PIM2 (human); compound 1.0 µM): 98%
residual activity (PIM2 (human); compound 10.0 µM): 77%
residual activity (MAPK9 (human); compound 1.0 µM): 128%
residual activity (MAPK9 (human); compound 10.0 µM): 117%
residual activity (MKNK1 (human); compound 1.0 µM): 97%
residual activity (MKNK1 (human); compound 10.0 µM): 79%
residual activity (MAPKAPK5 (human); compound 1.0 µM): 92%
residual activity (MAPKAPK5 (human); compound 10.0 µM): 90%
residual activity (PIM1 (human); compound 1.0 µM): 88%
residual activity (PIM1 (human); compound 10.0 µM): 44%
residual activity (PRKCZ (human); compound 1.0 µM): 96%
residual activity (PRKCZ (human); compound 10.0 µM): 103%
residual activity (PIM3 (human); compound 1.0 µM): 63%
residual activity (PIM3 (human); compound 10.0 µM): 18%
residual activity (MELK (human); compound 1.0 µM): 113%
residual activity (MELK (human); compound 10.0 µM): 101%
residual activity (DYRK1A (human); compound 1.0 µM): 94%
residual activity (DYRK1A (human); compound 10.0 µM): 85%
residual activity (FGFR1 (human); compound 1.0 µM): 110%
residual activity (FGFR1 (human); compound 10.0 µM): 115%
residual activity ([1]; compound 1.0 µM): 76%
residual activity ([1]; compound 10.0 µM): 54%
residual activity (CAMKK2 (human); compound 1.0 µM): 127%
residual activity (CAMKK2 (human); compound 10.0 µM): 122%
residual activity (MAPK3 (human); compound 1.0 µM): 103%
residual activity (MAPK3 (human); compound 10.0 µM): 110%
residual activity (MAPK13 (human); compound 1.0 µM): 100%
residual activity (MAPK13 (human); compound 10.0 µM): 103%
residual activity (BRSK1 (human); compound 1.0 µM): 97%
residual activity (BRSK1 (human); compound 10.0 µM): 92%
residual activity (MAPKAPK2 (human); compound 1.0 µM): 100%
residual activity (MAPKAPK2 (human); compound 10.0 µM): 106%
residual activity (BRSK2 (human); compound 1.0 µM): 106%
residual activity (BRSK2 (human); compound 10.0 µM): 87%
residual activity (GSK3B (human); compound 1.0 µM): 101%
residual activity (GSK3B (human); compound 10.0 µM): 93%
residual activity (PAK7 (human); compound 1.0 µM): 104%
residual activity (PAK7 (human); compound 10.0 µM): 96%
residual activity (PHKG1 (human); compound 1.0 µM): 104%
residual activity (PHKG1 (human); compound 10.0 µM): 94%
residual activity (ERBB4 (human); compound 1.0 µM): 100%
residual activity (ERBB4 (human); compound 10.0 µM): 77%
residual activity (IKBKE (human); compound 1.0 µM): 92%
residual activity (IKBKE (human); compound 10.0 µM): 112%
residual activity (MAPK12 (human); compound 1.0 µM): 97%
residual activity (MAPK12 (human); compound 10.0 µM): 100%
residual activity (PRKACA (human); compound 1.0 µM): 111%
residual activity (PRKACA (human); compound 10.0 µM): 114%
residual activity (IGF1R (human); compound 1.0 µM): 111%
residual activity (IGF1R (human); compound 10.0 µM): 98%
residual activity (HIPK3 (human); compound 1.0 µM): 98%
residual activity (HIPK3 (human); compound 10.0 µM): 103%
SMILES: O=C(O)c1cc(N=Nc2ccc(S(=O)(=O)Nc3ccccn3)cc2)ccc1O

residual activity (EEF2K (human); compound 0.1 µM): 124%
residual activity (EEF2K (human); compound 1.0 µM): 114%
residual activity (EEF2K (human); compound 10.0 µM): 117%
residual activity (PRKAA1 or PRKAA2 (rat); compound 0.1 µM): 99%
residual activity (PRKAA1 or PRKAA2 (rat); compound 1.0 µM): 95%
residual activity (PRKAA1 or PRKAA2 (rat); compound 10.0 µM): 68%
residual activity (STK3 (human); compound 0.1 µM): 108%
residual activity (STK3 (human); compound 1.0 µM): 59%
residual activity (STK3 (human); compound 10.0 µM): 21%
residual activity (MARK1 (human); compound 0.1 µM): 78%
residual activity (MARK1 (human); compound 1.0 µM): 66%
residual activity (MARK1 (human); compound 10.0 µM): 37%
residual activity (SYK (human); compound 0.1 µM): 96%
residual activity (SYK (human); compound 1.0 µM): 88%
residual activity (SYK (human); compound 10.0 µM): 56%
residual activity (PIM2 (human); compound 0.1 µM): 98%
residual activity (PIM2 (human); compound 1.0 µM): 95%
residual activity (PIM2 (human); compound 10.0 µM): 81%
residual activity (MAPK9 (human); compound 0.1 µM): 107%
residual activity (MAPK9 (human); compound 1.0 µM): 82%
residual activity (MAPK9 (human); compound 10.0 µM): 33%
residual activity (MKNK1 (human); compound 0.1 µM): 107%
residual activity (MKNK1 (human); compound 1.0 µM): 114%
residual activity (MKNK1 (human); compound 10.0 µM): 99%
residual activity (DAPK1 (human); compound 0.1 µM): 76%
residual activity (DAPK1 (human); compound 1.0 µM): 40%
residual activity (DAPK1 (human); compound 10.0 µM): 10%
residual activity (MAPKAPK5 (human); compound 0.1 µM): 87%
residual activity (MAPKAPK5 (human); compound 1.0 µM): 42%
residual activity (MAPKAPK5 (human); compound 10.0 µM): 15%
residual activity (PIM1 (human); compound 0.1 µM): 112%
residual activity (PIM1 (human); compound 1.0 µM): 89%
residual activity (PIM1 (human); compound 10.0 µM): 41%
residual activity (PRKCZ (human); compound 0.1 µM): 108%
residual activity (PRKCZ (human); compound 1.0 µM): 93%
residual activity (PRKCZ (human); compound 10.0 µM): 82%
residual activity (PIM3 (human); compound 0.1 µM): 101%
residual activity (PIM3 (human); compound 1.0 µM): 88%
residual activity (PIM3 (human); compound 10.0 µM): 42%
residual activity (MELK (human); compound 0.1 µM): 99%
residual activity (MELK (human); compound 1.0 µM): 57%
residual activity (MELK (human); compound 10.0 µM): 15%
residual activity (DYRK1A (human); compound 0.1 µM): 72%
residual activity (DYRK1A (human); compound 1.0 µM): 21%
residual activity (DYRK1A (human); compound 10.0 µM): 5%
residual activity (FGFR1 (human); compound 0.1 µM): 104%
residual activity (FGFR1 (human); compound 1.0 µM): 96%
residual activity (FGFR1 (human); compound 10.0 µM): 85%
residual activity ([1]; compound 0.1 µM): 92%
residual activity ([1]; compound 1.0 µM): 58%
residual activity ([1]; compound 10.0 µM): 46%
residual activity (CAMKK2 (human); compound 0.1 µM): 99%
residual activity (CAMKK2 (human); compound 1.0 µM): 61%
residual activity (CAMKK2 (human); compound 10.0 µM): 30%
residual activity (MAPK3 (human); compound 1.0 µM): 58%
residual activity (MAPK3 (human); compound 10.0 µM): 16%
residual activity (MAPK13 (human); compound 0.1 µM): 83%
residual activity (MAPK13 (human); compound 1.0 µM): 77%
residual activity (MAPK13 (human); compound 10.0 µM): 36%
residual activity (BRSK1 (human); compound 0.1 µM): 102%
residual activity (BRSK1 (human); compound 1.0 µM): 81%
residual activity (BRSK1 (human); compound 10.0 µM): 89%
residual activity (MAPKAPK2 (human); compound 0.1 µM): 102%
residual activity (MAPKAPK2 (human); compound 1.0 µM): 101%
residual activity (MAPKAPK2 (human); compound 10.0 µM): 94%
residual activity (BRSK2 (human); compound 0.1 µM): 109%
residual activity (BRSK2 (human); compound 1.0 µM): 108%
residual activity (BRSK2 (human); compound 10.0 µM): 130%
residual activity (GSK3B (human); compound 0.1 µM): 68%
residual activity (GSK3B (human); compound 1.0 µM): 16%
residual activity (GSK3B (human); compound 10.0 µM): 4%
residual activity (PAK7 (human); compound 0.1 µM): 79%
residual activity (PAK7 (human); compound 1.0 µM): 37%
residual activity (PAK7 (human); compound 10.0 µM): 16%
residual activity (PHKG1 (human); compound 0.1 µM): 104%
residual activity (PHKG1 (human); compound 1.0 µM): 92%
residual activity (PHKG1 (human); compound 10.0 µM): 55%
residual activity (ERBB4 (human); compound 1.0 µM): 40%
residual activity (ERBB4 (human); compound 10.0 µM): 17%
residual activity (IKBKE (human); compound 0.1 µM): 109%
residual activity (IKBKE (human); compound 1.0 µM): 86%
residual activity (IKBKE (human); compound 10.0 µM): 31%
residual activity (MAPK12 (human); compound 0.1 µM): 93%
residual activity (MAPK12 (human); compound 1.0 µM): 76%
residual activity (MAPK12 (human); compound 10.0 µM): 38%
residual activity (PRKACA (human); compound 0.1 µM): 80%
residual activity (PRKACA (human); compound 1.0 µM): 103%
residual activity (PRKACA (human); compound 10.0 µM): 96%
residual activity (EPHB4 (human); compound 0.1 µM): 107%
residual activity (EPHB4 (human); compound 1.0 µM): 76%
residual activity (EPHB4 (human); compound 10.0 µM): 19%
residual activity (IGF1R (human); compound 0.1 µM): 113%
residual activity (IGF1R (human); compound 1.0 µM): 87%
residual activity (IGF1R (human); compound 10.0 µM): 13%
residual activity (HIPK3 (human); compound 0.1 µM): 76%
residual activity (HIPK3 (human); compound 1.0 µM): 52%
residual activity (HIPK3 (human); compound 10.0 µM): 19%
SMILES: NC(=O)c1cc2c(-c3cccc(-c4ccccc4)c3)cnc(N)c2s1
